Laboratory results as given in patent publication US20230172936A1, “VCP/p97 INHIBITOR FOR THE TREATMENT OF CANCER” (Cleave Therapeutics, Inc., priority 2020, published 2023).

Key:
[1] = tested on: HL-60 cell line; experiment: Combination treatments, Cell Titer-Glo viability after 72 hours; assay type: cell-based, human; settings: HL-60
Method: (§1) The additional therapeutic agents for this example were azacitidine (Cayman Chemical Cat No. 11164), decitabine (Sigma Cat No. A3656) and venetoclax (InvivoChem Cat. No. V0001).
(§2) Cell Culture: Three human acute myeloid leukemia tumor cell lines were used in this study: HL60, MV4;11 and MOLM-13. HL60 and MV4;11 were grown in IMDM base media with 20% and 10% FBS, respectively. MOLM-13 was grown in RPMI 1640 base media with 20% FBS. All culture media contained 2 mM glutamine, 100 units/mL sodium penicillin G, […] gentamicin, and 100 μg/mL streptomycin sulfate. The tumor cells were cultured in tissue culture flasks in a humidified incubator at 37° C., in an atmosphere of 5% C02 and 95% air. Assay: Tumor cells were seeded in duplicate in a volume of 100 μL/well of media into 96-well micro-culture plates at initial densities low enough to allow for several population doublings (typically three to five) during the indicated incubation period. After a 24 hour incubation, test agents were added to each well. After 72 hours of culture with test articles, cell viability was determined using the Cell Titer-Glo® (Promega G7571) assay. Briefly, Cell Titer-Glo® (Promega G7571) reagents were equilibrated at room temperature for 30 minutes; 100 μL per well was added at endpoint (72 hours). Plates were gently shaken for two minutes and then incubated at room temperature for ten minutes prior to reading luminescence on the BMG Clariostar Plus microplate reader.
(§3) An IC50 ratio for each combination was calculated from the ratio of the combination IC50 as compared to the applicable no fixed agent (vehicle) control.

[2] = tested on: MV4; 11 cell line; experiment: as above; assay type: cell-based, human; settings: MV4, 11
Method: as §1, §2, §3

[3] = tested on: CTG-2774; experiment: Ex-vivo cytotoxicity by Cell Titer Glo; assay type: cell-based; settings: Homo sapiens, 144 h; CTG-2774, 6 days
Method: (§4) Acute myelogenous leukemia (AML) is the most common acute leukemia in adults. A hematologic cancer, the disease is highly heterogeneous, with multiple subtypes. About 30% of AML cases harbor a FLT3/ITD mutation making the disease highly proliferative and more aggressive with a high risk of relapse.
(§5) Triplicate wells with media only and duplicate wells of vehicle (0.2% DMSO) were used as negative controls. […] To measure proliferation, untreated cells at days 0 and 6 were evaluated via Cell Titer Glo.
(§6) Protocol: • 1. AML cells were thawed and resuspended in enriched media composed of StemSpan™ Serum-Free Expansion Media (SFEM), 2% heat-inactivated FBS, StemSpan™ CC110 and recombinant human IL-3. • 2. 20,000 cells/well in 100 μL volume were plated on study day 0. • 3. […] Cells were incubated in the presence of drug for 6 days. • 5. On day 6, plates were removed from the incubator and equilibrated to room temperature for 20 minutes. 100 μL/well Cell Titer Glo was added to each well and incubated for 10 minutes before plate reading. • 6. Luminescence was recorded using Tecan Infinite M Plex plate reader.

[4] = tested on: CTG-2236; experiment: Ex-vivo cytotoxicity by Cell Titer Glo; assay type: cell-based; settings: Homo sapiens, 144 h; CTG-2236, 6 days
Method: as §4, §5, §6

[5] = tested on: CTG-2704; experiment: Ex-vivo cytotoxicity by Cell Titer Glo; assay type: cell-based; settings: Homo sapiens, 144 h; CTG-2704, 6 days
Method: as §4, §5, §6

[6] = tested on: CTG-2775; experiment: Ex-vivo cytotoxicity by Cell Titer Glo; assay type: cell-based; settings: Homo sapiens, 144 h; CTG-2775, 6 days
Method: as §4, §5, §6

[7] = tested on: CTG-2455; experiment: Ex-vivo cytotoxicity by Cell Titer Glo; assay type: cell-based; settings: Homo sapiens, 144 h; CTG-2455, 6 days
Method: as §4, §5, §6

[8] = tested on: CTG-2233; experiment: Ex-vivo cytotoxicity by Cell Titer Glo; assay type: cell-based; settings: Homo sapiens, 144 h; CTG-2233, 6 days
Method: as §4, §5, §6

[9] = tested on: CTG-2502; experiment: Ex-vivo cytotoxicity by Cell Titer Glo; assay type: cell-based; settings: Homo sapiens, 144 h; CTG-2502, 6 days
Method: as §4, §5, §6

[10] = tested on: CTG-2229; experiment: Ex-vivo cytotoxicity by Cell Titer Glo; assay type: cell-based; settings: Homo sapiens, 144 h; CTG-2229, 6 days
Method: as §4, §5, §6

[11] = tested on: CTG-3438; experiment: Ex-vivo cytotoxicity by Cell Titer Glo; assay type: cell-based; settings: Homo sapiens, 144 h; CTG-3438, 6 days
Method: as §4, §5, §6

[12] = tested on: CTG-2235; experiment: Ex-vivo cytotoxicity by Cell Titer Glo; assay type: cell-based; settings: Homo sapiens, 144 h; CTG-2235, 6 days
Method: as §4, §5, §6

[13] = tested on: CTG-3439; experiment: Ex-vivo cytotoxicity by Cell Titer Glo; assay type: cell-based; settings: Homo sapiens, 144 h; CTG-3439, 6 days
Method: as §4, §5, §6

[14] = tested on: CTG-2901; experiment: Ex-vivo cytotoxicity by Cell Titer Glo; assay type: cell-based; settings: Homo sapiens, 144 h; CTG-2901, 6 days
Method: as §4, §5, §6

[15] = tested on: CTG-2457; experiment: Ex-vivo cytotoxicity by Cell Titer Glo; assay type: cell-based; settings: Homo sapiens, 144 h; CTG-2457, 6 days
Method: as §4, §5, §6

[16] = tested on: CTG-3440; experiment: Ex-vivo cytotoxicity by Cell Titer Glo; assay type: cell-based; settings: Homo sapiens, 144 h; CTG-3440, 6 days
Method: as §4, §5, §6

[17] = tested on: CTG-2234; experiment: Ex-vivo cytotoxicity by Cell Titer Glo; assay type: cell-based; settings: Homo sapiens, 144 h; CTG-2234, 6 days
Method: as §4, §5, §6

[18] = tested on: CTG-2700; experiment: Ex-vivo cytotoxicity by Cell Titer Glo; assay type: cell-based; settings: Homo sapiens, 144 h; CTG-2700, 6 days
Method: as §4, §5, §6

[19] = tested on: CTG-2453; experiment: Ex-vivo cytotoxicity by Cell Titer Glo; assay type: cell-based; settings: Homo sapiens, 144 h; CTG-2453, 6 days
Method: as §4, §5, §6

[20] = tested on: CTG-2232; experiment: Ex-vivo cytotoxicity by Cell Titer Glo; assay type: cell-based; settings: Homo sapiens, 144 h; CTG-2232, 6 days
Method: as §4, §5, §6

[21] = tested on: CTG-2243; experiment: Ex-vivo cytotoxicity by Cell Titer Glo; assay type: cell-based; settings: Homo sapiens, 144 h; CTG-2243, 6 days
Method: as §4, §5, §6

[22] = Homo sapiens, 72 h, no fixed agent (vehicle), read-out: IC50

For `Cc1cc2c(C(N)=O)cccc2n1-c1nc2c(c(NCc3ccccc3)n1)CCCN2` [Compound 1, 1-(4-(Benzylamino)-5,6,7,8-tetrahydropyrido[2,3-d]pyrimidin-2-yl)-2-methyl-1H-indole-4-carboxamide], the “Combination: Monotherapy IC50 Ratio” value ([1]; fixed agent Azacitidine - 5750 nM) was 1.02, the “Combination: Monotherapy IC50 Ratio” value ([1]; fixed agent Azacitidine - 9800 nM) was 0.85 and the “Combination: Monotherapy IC50 Ratio” value ([1]; fixed agent Decitabine - 175 nM) was 0.96. The “Combination: Monotherapy IC50 Ratio” value ([1]; fixed agent Decitabine - 1700 nM) was 1.06, the “Combination: Monotherapy IC50 Ratio” value ([1]; fixed agent Venetoclax+ Azacitidine - 85 nM) was 0.84 and the “Combination: Monotherapy IC50 Ratio” value ([1]; fixed agent Venetoclax+ Azacitidine - 475 nM) was 0.84. For the same compound, the IC50 [1, 22] was 305 nM, the IC50 [2, 22] was 251 nM and the “Combination: Monotherapy IC50 Ratio” value ([2]; fixed agent Azacitidine - 500 nM) was 0.46. For the same compound, the “Combination: Monotherapy IC50 Ratio” value ([2]; fixed agent Azacitidine - 3150 nM) was 0.47, the “Combination: Monotherapy IC50 Ratio” value ([2]; fixed agent Decitabine - 30 nM) was 0.47 and the “Combination: Monotherapy IC50 Ratio” value ([2]; fixed agent Decitabine - 215 nM) was 0.36. The “Combination: Monotherapy IC50 Ratio” value ([2]; fixed agent Venetoclax+ Azacitidine - 20 nM) was 0.65, the “Combination: Monotherapy IC50 Ratio” value ([2]; fixed agent Venetoclax+ Azacitidine - 50 nM) was 0.47 and the IC50 [3] was 327 nM. For the same compound, the IC50 [4] was 527 nM, the IC50 [5] was 666 nM and the IC50 [6] was 437 nM. For the same compound, the IC50 [7] was 220 nM, the IC50 [8] was 412 nM and the IC50 [9] was 480 nM. It also gave an IC50 [10] of 752 nM, an IC50 [11] of 263 nM and an IC50 [12] of 362 nM. The IC50 [13] was 691 nM, the IC50 [14] was 446 nM and the IC50 [15] was 627 nM. It also gave an IC50 [16] of 332 nM, an IC50 [17] of 485 nM and an IC50 [18] of 386 nM. It also gave an IC50 [19] of 307 nM, an IC50 [20] of 275 nM and an IC50 [21] of 460 nM.
